# According to patent US10265329B2, “Altering steroid metabolism for treatment of steroid-dependent disease” (THE CLEVELAND CLINIC FOUNDATION, priority 2015, dated 2019):
# pIC50: −log10 of the molar value.
# How the values were obtained:
# 3βHSD = target: T1, 3βHSD (Homo sapiens, UniProt P14060); test: Conversion of [3H]-DHEA by 3βHSD to AD in prostate cancer cells (HPLC/TLC); type: cell-based; details: for 3βHSD inhibition activity relative to D4A: LNCaP, [3H]-DHEA to AD, 48 hours
# T1 construct: endogenous in cells; host or cells: LNCaP, VCaP
# T1 sequence (P14060 2-373 limits assumed): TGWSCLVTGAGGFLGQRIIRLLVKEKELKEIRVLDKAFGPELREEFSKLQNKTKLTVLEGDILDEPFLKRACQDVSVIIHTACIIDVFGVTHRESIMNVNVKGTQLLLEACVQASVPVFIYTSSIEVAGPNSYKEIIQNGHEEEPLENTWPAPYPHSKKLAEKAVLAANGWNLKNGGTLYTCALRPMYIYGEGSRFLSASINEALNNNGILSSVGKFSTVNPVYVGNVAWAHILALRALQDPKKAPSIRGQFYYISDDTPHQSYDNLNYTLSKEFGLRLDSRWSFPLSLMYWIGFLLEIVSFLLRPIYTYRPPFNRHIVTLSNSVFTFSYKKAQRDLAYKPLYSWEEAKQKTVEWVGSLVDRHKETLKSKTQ
# Description: Cell Line Metabolism: Cells were seeded and incubated in 12-well plates with 0.2 million cells/well for ˜24 h and then incubated with a mixture of radioactive ([^3H]-labeled) and non-radioactive androgens (final concentration, 100 nM; ˜1,000,000 cpm/well; PerkinElmer, Waltham, Mass.) at 37° C. Aliquots of medium were collected at the indicated times. Collected medium was treated with 1,000 units of β-glucuronidase (Helix pomatia; Sigma-Aldrich) at 65° C. for 2 h, extracted with 860 μL ethyl acetate:isooctane (1:1), and concentrated under nitrogen gas. Xenograft Metabolism: 10^7 LNCaP or VCaP cells were injected subcutaneously with Matrigel into surgically orchiectomized NSG mice that were implanted with 5 mg 90-day sustained-release DHEA pellets (Innovative Research of American, Sarasota, Fla.). Xenografts were harvested when they reached 1000 mm^3, minced, and cultured in DMEM with 10% FBS at 37° C. with mixture of radioactive ([^3H]-labeled) and non-radioactive androgens, or Abi, when they reached 1000 mm^3. Each xenograft was analyzed in triplicate in at least three independent experiments. Aliquots of medium were collected at the indicated times. Collected medium was treated with 1,000 units of β-glucuronidase at 65° C. for 2 h, extracted with 860 μL ethyl acetate:isooctane (1:1), and concentrated under nitrogen gas.
# Dried samples were reconstituted in 50% methanol and injected into the HPLC. Steroids and drug metabolites were separated on Kinetex 100×2.1 mm, 2.6 μm particle size C18 reverse-phase column (Phenomenex, Torrance, Calif.) using a methanol/water gradient at 30° C. […] Alternatively, dried samples were applied to plastic-backed silica gel plates and separated by thin-layer chromatography (TLC) using a mobile phase of 3:1 chloroform:ethyl acetate, followed by exposure of the plates to a phosphorimager screen and quantitated with a Storm model 860 phosphorimager (Applied Biosystems, Foster City, Calif.). […] Results are shown as mean±SD. […]
# mutant AR (LNCaP) = target: T2, mutant AR (LNCaP) (Homo sapiens, UniProt P10275, T878A); test: AR competition assay with [3H]-R1881 in LNCaP cells; type: binding; details: for affinity for T877A mutant AR: [3H]-R1881, 30 min
# T2 construct: endogenous in cells; host or cells: LNCaP
# T2 sequence (P10275 1-920 T878A): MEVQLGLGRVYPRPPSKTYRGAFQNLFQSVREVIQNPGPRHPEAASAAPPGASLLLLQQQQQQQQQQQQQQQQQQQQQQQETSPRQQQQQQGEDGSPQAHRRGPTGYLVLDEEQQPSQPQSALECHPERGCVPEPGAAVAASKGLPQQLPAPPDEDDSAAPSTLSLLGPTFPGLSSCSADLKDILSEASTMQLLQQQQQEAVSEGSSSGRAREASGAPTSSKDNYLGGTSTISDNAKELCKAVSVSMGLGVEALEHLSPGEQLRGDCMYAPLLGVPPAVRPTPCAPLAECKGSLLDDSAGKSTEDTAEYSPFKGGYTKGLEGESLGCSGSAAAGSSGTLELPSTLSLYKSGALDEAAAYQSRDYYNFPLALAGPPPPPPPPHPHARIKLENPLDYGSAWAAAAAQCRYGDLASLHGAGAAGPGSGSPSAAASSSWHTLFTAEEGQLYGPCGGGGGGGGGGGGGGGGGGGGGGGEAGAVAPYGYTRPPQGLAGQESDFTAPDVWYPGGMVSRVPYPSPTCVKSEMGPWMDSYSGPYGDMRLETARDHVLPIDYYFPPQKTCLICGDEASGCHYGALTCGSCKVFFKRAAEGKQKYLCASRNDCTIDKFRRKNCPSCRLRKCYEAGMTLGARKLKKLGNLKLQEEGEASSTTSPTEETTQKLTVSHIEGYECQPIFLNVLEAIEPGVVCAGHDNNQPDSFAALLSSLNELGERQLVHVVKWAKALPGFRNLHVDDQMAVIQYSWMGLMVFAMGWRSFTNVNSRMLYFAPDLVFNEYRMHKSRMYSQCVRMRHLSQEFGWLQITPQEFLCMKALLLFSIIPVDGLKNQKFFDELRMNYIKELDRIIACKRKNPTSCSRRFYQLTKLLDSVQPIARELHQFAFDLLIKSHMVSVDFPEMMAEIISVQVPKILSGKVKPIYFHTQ
# Description: Cells were cultured in serum-free medium for 48 h and then treated with [^3H]-R1881 and the indicated concentrations of D4A, Abi, enzalutamide, R1881 or bicalutamide for 30 min. Cells were washed with 1×PBS 4 times and 0.9% NaCl solution twice before lysis with RIPA buffer.
# Cells were starved with phenol red-free and serum free-medium for at least 48 h and then treated with [^3H]-R1881 and the indicated concentrations of drugs for 30 min. Cells were washed thoroughly with PBS and then lysed with […].
Compound,"potency relative to Abi at blocking conversion of [3H]-DHEA by 3βHSD to AD (3βHSD; LNCaP and VCaP cells, TLC and HPLC)","pIC50 (mutant AR (LNCaP); competition with 0.1 nM [3H]-R1881, read-out: IC50, affinity for mutant AR)",3βHSD inhibition activity relative to D4A (3βHSD),affinity for T877A mutant AR (mutant AR (LNCaP))
"C[C@]12CCC(=O)C=C1CC[C@@H]1[C@@H]2CC[C@]2(C)C(c3cccnc3)=CC[C@@H]12 [Compound D4A, 17-(3-Pyridyl)androsta-4,16-dien-3-one]",approximately 10 fold,8.28,–,–
"C[C@]12CCC(=O)C[C@@H]1CC[C@@H]1[C@@H]2CC[C@]2(C)C(c3cccnc3)=CC[C@@H]12 [Compound 5α-Abi, 17-(3-pyridyl)-5α-androsta-16-ene-3-one]",–,–,attenuation or loss,comparable to that of D4A
"C[C@]12CC[C@@H](O)C[C@@H]1CC[C@@H]1[C@@H]2CC[C@]2(C)C(c3cccnc3)=CC[C@@H]12 [Compound 3α-OH-5α-Abi, 17-(3-pyridyl)-5α-androsta-16-ene-3α-ol]",–,–,attenuation or loss,lower
